Measured values as given in patent publication US5196447A, “Neristatin 1” (Arizona Board of Regents, a body Corporate of The State of …, priority 1991, dated 1993).
Converted amounts (≈) assume the structure as drawn.

Assays:
[1] = test system: protein kinase C; assay: Usual phorbol ester binding conditions using reconstitution of protein kinase C in phosphatidylserine
[2] = target: protein kinase C; assay: Competition for [26-3H] bryostatin 4 binding to protein kinase C (phosphatidylserine/TRITON X-100 mixed micelles)
[3] = test system: P388 cell line; assay: Activity against the P388 lymphocytic leukemia cell line; format: cell-based, murine
[4] = Stability in recrystallization attempts / various solvents; format: physicochemical

## COC(=O)C=C1CC2C=CC(C)(C)C(=O)C34OC(=O)CC3CC(CC(O)C(C)OC(=O)CC(O)CC3CC(OC(=O)C(C)(C)C)C(C)(C)C(O)(CC(C1)O2)O3)O4 (stereo not shown) [neristatin 1]
[1]; relative to phorbol 12,13-dibutyrate
  affinity for protein kinase C compared with phorbol 12,13-dibutyrate: an order of magnitude less
[1]; usual phorbol ester binding conditions, reconstitution in phosphatidylserine, neristatin 1: mean±sem, 3 experiments
  Ki: 0.0212 ± 0.0013 µM
[2]; phosphatidylserine/TRITION X-100 mixed micelles, competition for [26-3H] bryostatin 4, neristatin 1: mean±SEM, 4 experiments
  Ki: 0.124 ± 0.01 µM
[2]; relative to bryostatin 4
  affinity for protein kinase C compared with bryostatin 4: at least two orders of magnitude less
[3]; Mus musculus, read-out: ED50 (the source's name)
  IC50: 10 µg/mL (≈ 12.6 µM)
[3]; relative to bryostatin 5
  potency compared to bryostatin 5: reduced but still significant potency
[4]
  stability of small samples in various solvents: rapidly degraded in various solvents
